This is an account of results in patent US8642352B2, “Methods and systems for detection of stoichiometry by Förster resonance energy transfer” (California Institute of Technology, priority 2009, dated 2014).

Assay [1] deals with T1, α4β2 nAChRs (Mus musculus, UniProt O70174+Q9ERK7). The settings on record: α4:β2 cDNA ratio 1:1, exposed to nicotine, N2a cells. Here is the method: (§1) In the experimental procedures illustrated in the present disclosure N2a cells were cultured at 37° C. in 95% air, 5% CO2 in medium composed of 44.5% DMEM, 44.5% OptiMEM1, 5% FBS, 100 I.U./ml penicillin and 100 μg/ml streptomycin. For all experiments, cells were plated onto poly-d-lysine coated 35 mm culture dishes with 14 mm glass bottoms. Transfections were performed using a modification of the manufacturer's Lipofectamine and Plus reagent protocol, resulting in non-saturated expression levels of nAChRs (Imoukhuede et al., 2009; Moss et al., 2009; Son et al., 2009). Nicotine at 1 μM final concentration was added to the appropriate dishes (nicotine was replenished with each media change).
T1 sequence (O70174 31-629): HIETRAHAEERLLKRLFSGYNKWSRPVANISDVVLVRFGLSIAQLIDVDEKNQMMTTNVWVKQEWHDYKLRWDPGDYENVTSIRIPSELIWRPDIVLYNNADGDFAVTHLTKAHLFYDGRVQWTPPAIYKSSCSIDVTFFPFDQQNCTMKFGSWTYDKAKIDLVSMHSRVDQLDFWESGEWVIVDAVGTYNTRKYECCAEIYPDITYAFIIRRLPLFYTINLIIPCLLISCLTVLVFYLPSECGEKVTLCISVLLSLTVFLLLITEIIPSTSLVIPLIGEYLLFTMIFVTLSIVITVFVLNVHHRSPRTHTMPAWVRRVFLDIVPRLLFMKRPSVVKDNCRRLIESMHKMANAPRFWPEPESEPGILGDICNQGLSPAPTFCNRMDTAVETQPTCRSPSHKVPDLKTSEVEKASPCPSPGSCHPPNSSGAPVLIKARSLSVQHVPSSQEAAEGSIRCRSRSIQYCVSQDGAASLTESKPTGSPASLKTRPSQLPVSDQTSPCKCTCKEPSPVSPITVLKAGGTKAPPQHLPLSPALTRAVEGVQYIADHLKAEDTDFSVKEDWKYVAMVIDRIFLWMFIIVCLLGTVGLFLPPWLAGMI
T1 sequence (Q9ERK7 26-501): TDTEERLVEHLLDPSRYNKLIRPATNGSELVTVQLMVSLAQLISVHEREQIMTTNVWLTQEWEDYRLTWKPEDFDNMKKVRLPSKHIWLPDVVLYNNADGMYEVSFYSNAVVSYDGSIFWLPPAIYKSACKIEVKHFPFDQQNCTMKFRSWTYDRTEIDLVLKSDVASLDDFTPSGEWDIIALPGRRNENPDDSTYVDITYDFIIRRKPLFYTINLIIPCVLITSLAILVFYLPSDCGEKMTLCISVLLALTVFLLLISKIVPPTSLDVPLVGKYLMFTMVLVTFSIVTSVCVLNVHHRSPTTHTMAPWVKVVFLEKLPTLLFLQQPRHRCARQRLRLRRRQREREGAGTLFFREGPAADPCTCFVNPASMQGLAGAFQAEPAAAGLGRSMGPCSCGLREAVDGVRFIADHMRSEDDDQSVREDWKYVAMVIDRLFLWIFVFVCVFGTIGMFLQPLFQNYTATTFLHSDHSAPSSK

Another assay deals with WT α4β2 nAChRs (Mus musculus, UniProt O70174+Q9ERK7). Here is the method:
as §1
(§2) N2a cells were visualized at room temperature in extracellular buffer, 48 h after transfection. A series of lambda stack X-Y images were collected with the Eclipse C1si laser scanning confocal microscope according to procedures exemplified in Example 5. Dequenching of CFP fluorescence during incremental photobleaching of YFP was performed and analyzed as previously described (Nashmi et al., 2003; Drenan et al., 2008). FRET efficiency (E) was calculated according to (Equation 1).
(§3) IDA represents the normalized fluorescence intensity of the donor (100%) in the presence of non-bleached acceptor. ID represents the normalized fluorescence intensity of the donor following 100% photobleach of the acceptor. The ID value was extrapolated from a scatter plot of the percentage increase of donor intensity versus the percentage decrease of acceptor intensity for each cell (Nashmi et al., 2003).
(§4) A series of experiments were carried out with WT nAChR and ADFLE mutated nAChR were performed using image acquisition by FRET acceptor photobleach to detect nAChR stoichiometry before and after contact with nicotine.

Assay [2] concerns the target T2, α4β2 V287L nAChR (Mus musculus, UniProt O70174+Q9ERK7, V287L). Here is the method:
as §1, §2, §3, §4

The next assay has as its target α4 S248F β2 nAChR (Mus musculus, UniProt O70174+Q9ERK7, S282F). The settings on record: α4 subunits carrying S248F and XFP, nicotine 1 μM, 48 h. An excerpt:
(§5) Live cells were imaged using the Eclipse C1si laser scanning confocal microscope according to procedures exemplified in Example 5. Full emission spectra images are acquired in 5 nm bins between 450 nm and 610 nm, linearly unmixed using reference spectra from samples expressing solely the donor- or acceptor-tagged fusion constructs to unambiguously separate the donor and acceptor signal from each pixel of the spectral images.
(§6) Live cells are imaged using the Eclipse C1si laser scanning confocal microscope. Full emission spectra images are acquired in 5 nm bins between 450 nm and 610 nm, linearly unmixed using reference spectra from samples expressing solely the donor- or acceptor-tagged fusion constructs to unambiguously separate the donor and acceptor signal from each pixel of the spectral images. Transfections of cells expressing only the donor- or acceptor-tagged fusion protein are performed for every imaging session to control for pixel saturation and spectral bleedthrough (SBT). Where appropriate, non-fluorescent subunit cDNAs are included in the transfection to ensure the faithful expression and subcellular localization of the single fluorescent species. Control samples expressing only the donor-fused constructs are imaged with the appropriate laser line and unmixed with acceptor and donor emission spectra. The unmixed acceptor images are termed the FRETd channel, and the fluorescence intensity of each pixel is termed (IFRETd). The donor fluorophore images are the “Donor” channel and pixel intensities are described by Idonor. A montage of all the FRETd channel images and a second montage of all the Donor channel images are assembled and compiled into an image stack called the “Donor SBT stack” in the order FRETd channel, Donor channel.
(§7) Two spectral images of each cell expressing only the acceptor-fused constructs are acquired, the first excited by the donor specific laser line and the second with the acceptor specific laser line. The acceptor fluorophore signal is unmixed from each image.

Assay [3] addresses T2, α4β2 V287L nAChR. The settings on record: 1 μM nicotine for 48 h.
From the text: as §5, §6, §7

A further assay concerns ADNFLE α4β2 receptors. Here is the method: The data on comparative stoichiometry from acceptor photobleach FRET, pixel-based FRET, and FIR measurements obtained from the experiments exemplified in the above examples and in the related figures can be summarized. In particular data gathered for the various subunit transfection ratios, various mutants, and various labeling strategies were analyzed by the relation in FIG. 3D or by Equations 13 and 14, as appropriate.
The effects of nicotine can also be summarized; in each case, the experiment compared incubation vs. saline.

The target in assay [4] is T1, α4β2 nAChRs. Here is the method:
as §6, §7

The next assay addresses α4β2 receptors (Mus musculus, UniProt O70174+Q9ERK7). An excerpt:
Cells were transfected with membrane-targeted mCherry, α4GFP, and unlabeled β2. Left panels, mCherry; middle panels, α4GFP; right panels, overlay. […] Scale bars, 5 μm.
All results from microscopy analysis will be correlated to receptor function using whole cell electrophysiology.

Assay [5] concerns the target α4β2 nAChRs (Homo sapiens, UniProt P17787+P43681). The settings on record: α4:β2 cDNA ratio 1:1, nicotine; Nelson et al., 2003; cited from earlier work.

T2 sequence (O70174 31-629): as the sequence (O70174 31-629) above
T2 sequence (Q9ERK7 26-501 V287L): as the sequence (Q9ERK7 26-501) above, with V262L counted along it
Sequence of α4β2 receptors (O70174 31-629): as the sequence (O70174 31-629) above
Sequence of α4β2 receptors (Q9ERK7 26-501): as the sequence (Q9ERK7 26-501) above
Sequence of WT α4β2 nAChRs (O70174 31-629): as the sequence (O70174 31-629) above
Sequence of WT α4β2 nAChRs (Q9ERK7 26-501): as the sequence (Q9ERK7 26-501) above
Sequence of α4β2 nAChRs (Homo sapiens, UniProt P17787+P43681) (P43681 29-627 limits assumed): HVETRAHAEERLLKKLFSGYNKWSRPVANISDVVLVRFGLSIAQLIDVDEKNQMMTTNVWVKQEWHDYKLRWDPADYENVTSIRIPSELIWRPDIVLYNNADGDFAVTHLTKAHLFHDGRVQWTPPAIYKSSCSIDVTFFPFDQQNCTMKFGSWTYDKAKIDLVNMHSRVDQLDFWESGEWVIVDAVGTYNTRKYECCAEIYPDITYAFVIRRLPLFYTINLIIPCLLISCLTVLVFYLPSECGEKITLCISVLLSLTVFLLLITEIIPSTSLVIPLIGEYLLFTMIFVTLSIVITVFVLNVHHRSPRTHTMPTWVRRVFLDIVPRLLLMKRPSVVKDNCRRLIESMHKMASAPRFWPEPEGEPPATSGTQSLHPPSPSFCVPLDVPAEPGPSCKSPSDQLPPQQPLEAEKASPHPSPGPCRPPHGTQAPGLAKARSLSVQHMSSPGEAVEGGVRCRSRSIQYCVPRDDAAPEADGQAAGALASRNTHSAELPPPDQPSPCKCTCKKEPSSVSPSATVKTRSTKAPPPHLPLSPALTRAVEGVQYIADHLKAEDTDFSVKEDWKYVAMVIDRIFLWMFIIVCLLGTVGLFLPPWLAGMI
Sequence of α4β2 nAChRs (Homo sapiens, UniProt P17787+P43681) (P17787 26-502): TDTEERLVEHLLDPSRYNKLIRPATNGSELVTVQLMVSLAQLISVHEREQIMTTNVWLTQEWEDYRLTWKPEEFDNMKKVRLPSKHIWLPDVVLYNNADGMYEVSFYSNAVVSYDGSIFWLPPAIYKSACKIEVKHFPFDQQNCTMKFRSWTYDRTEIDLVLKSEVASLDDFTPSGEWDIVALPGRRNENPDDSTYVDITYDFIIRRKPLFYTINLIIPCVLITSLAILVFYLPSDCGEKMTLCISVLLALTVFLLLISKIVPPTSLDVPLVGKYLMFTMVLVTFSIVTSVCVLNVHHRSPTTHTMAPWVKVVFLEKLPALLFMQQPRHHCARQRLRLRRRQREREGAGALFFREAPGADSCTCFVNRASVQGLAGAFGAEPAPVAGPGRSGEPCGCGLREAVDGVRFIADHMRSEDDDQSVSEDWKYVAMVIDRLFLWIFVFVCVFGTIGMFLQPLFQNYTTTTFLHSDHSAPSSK
Sequence of α4 S248F β2 nAChR (O70174 31-629 S282F): as the sequence (O70174 31-629) above, with S252F counted along it
Sequence of α4 S248F β2 nAChR (Q9ERK7 26-501): as the sequence (Q9ERK7 26-501) above

Consider `CN1CCCC1c1cccnc1` (centres unmarked) [Nicotine, nicotine], for which, on α4β2 nAChRs [1], the “Percent of (α4)3(β2)2 for WT nAChRs, FIR” value is reported as 73%. Also, on WT α4β2 nAChRs (1:1 cDNA α4XFP:β2 or α4:β2XFP, nicotine 1 μM), the “Shift of WT receptor stoichiometry on incubation in nicotine” value was “shifts the receptor population toward the (α4)2(β2)3 stoichiometry”. For the same compound, on WT α4β2 nAChRs (α4:β2 cDNA ratio 1:1, exposed to nicotine, N2a cells), the “Percent of (α4)3(β2)2 for WT nAChRs, FRET” value is 61 ± 6%. Moreover, the “FRET efficiency of nicotine-treated versus unexposed cells” value at α4β2 V287L nAChR [2] (cells transfected with α4XFP β2 V287L) is “lower FRET efficiency”. Besides, the “FRET efficiency after incubation in nicotine compared to control cells” value on α4β2 V287L nAChR [2] (cells transfected with α4 and β2 V287L XFP subunits) is “significantly higher”. Moreover, on α4β2 V287L nAChR [2] (β2 V287L ADNFLE mutation), the “Shift in stoichiometry in the presence of nicotine” value was “shift in stoichiometry towards (α4)2(β2)3”. Besides, the “Shift of receptor population stoichiometry” value at α4 S248F β2 nAChR was “shifted the population toward the (α4)2(β2)3 stoichiometry”. Further, at α4β2 V287L nAChR [3] (α4XFP plus β2V287L), the “α4 intersubunit FRET efficiency” value was “completely back to WT levels”. The “Mean β2 intersubunit FRET efficiency” value at α4β2 V287L nAChR [3] (α4 plus β2(V287L)XFP) is “increased to a level even higher than the control cells”. Besides, the “Percentage of (α4)3(β2)2 ADNFLE receptors after nicotine incubation relative to saline incubation” value in the assay on ADNFLE α4β2 receptors (at least five experiments) came out at 0.8. In the assay with ADNFLE α4β2 receptors (each of at least five experiments), the “Ratio nicotine/saline of percentage of (α4)3(β2)2 ADNFLE receptors, all cases” value is on record as under 1. For the same compound, the “Receptor population in the Golgi” value at α4β2 nAChRs [4] (trans-Golgi ROI (GalT-CFP), 1 μM nicotine, 4 h post-exposure) was “pure (α4)2(β2)3 receptor population”. The “Duration of the stoichiometry switch post nicotine exposure” value on α4β2 nAChRs [4] (whole cell NFRET) is “at least 24 h”. The “Receptor population expressing the high-sensitivity (α4)2(β2)3 stoichiometry” value at α4β2 nAChRs [4] (whole cell NFRET distribution, 4 h exposure to a saturating dose (1 μM) of nicotine) came to 80%. At α4β2 receptors (4 h of 1 μM nicotine exposure), the “Upregulation at the plasma membrane by TIRFM” value was “sufficient to cause upregulation at the plasma membrane”. Also, on α4β2 receptors (incubation for 48 h in nicotine, α4GFP plus unlabeled β2), the “α4GFP fluorescence in TIRF images” value is listed as “much brighter”. Further, the “Percent of (α4)3(β2)2 for WT nAChRs, Reported” value on α4β2 nAChRs [5] is reported as 68 ± 5%.
